This note sets out measurements from patent publication US4902617A, “Enzyme and process for producing the same” (Hoffmann-La Roche Inc., priority 1986, dated 1990).

In assay [1] the target is T1, L-sorbosone dehydrogenase, purified from cytosol fraction of Gluconobacter oxydans UV-10 (FERM BP-1267) (Gluconobacter oxydans, UniProt Q47943).
T1 sequence (Q47943 1-498): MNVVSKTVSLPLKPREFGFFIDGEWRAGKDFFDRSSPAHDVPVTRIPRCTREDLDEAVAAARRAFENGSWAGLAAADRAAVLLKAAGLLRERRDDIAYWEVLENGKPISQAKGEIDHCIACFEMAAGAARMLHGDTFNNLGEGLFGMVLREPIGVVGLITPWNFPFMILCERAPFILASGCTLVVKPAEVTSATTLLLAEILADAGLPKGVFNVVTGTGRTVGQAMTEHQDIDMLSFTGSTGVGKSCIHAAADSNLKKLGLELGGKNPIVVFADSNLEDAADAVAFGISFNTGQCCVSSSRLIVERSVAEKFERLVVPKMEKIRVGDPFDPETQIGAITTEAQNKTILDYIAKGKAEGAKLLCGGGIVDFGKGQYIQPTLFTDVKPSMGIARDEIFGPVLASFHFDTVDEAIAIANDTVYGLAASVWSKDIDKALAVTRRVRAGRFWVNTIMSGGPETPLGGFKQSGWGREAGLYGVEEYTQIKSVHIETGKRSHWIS
Kind of assay: biochemical. Particulars: pH 7, read-out: Relative Activity (%) in presence of substance.

For assay [2], the target named is T1, L-sorbosone dehydrogenase, purified from cytosol fraction of Gluconobacter oxydans UV-10 (FERM BP-1267).

In the case of `O=C(O)CI` [ICH2 COONa], in assay [1], the activity at 5000 µM worked out at 57.7%.
In the case of `[N-]=[N+]=[N-].[Na+]` [NaN3], the “Relative Activity (%) in presence of substance” value in assay [2] (substance conc. 5 mM, None = 100, pH 7.0, 30° C.) is on record as 100%.
As for `O[C@H](CS)[C@H](O)CS` (racemic) [Dithiothreitol], in assay [1], the activity at 5000 µM came out at 119%.
As to `CCN1C(=O)C=CC1=O` [N--Ethylmaleimide, N-Ethylmaleimide], the “Effect on enzyme activity (in words)” value in assay [2] (summary of Table 8) is listed as “inhibited the enzyme activity strongly”. The activity at 1000 µM in assay [1] came out at 0%.
